PubChem BioAssay AID248 (DTP/NCI, 2004)
Values joined by “and” are separate entries in the source; they are usually repeats but may differ in a detail not shown here. Equal entries are not always repeated. Inconclusive results and toxic doses are left out. Cut-off read from the data, not from the text of the source: active = T/C of 150% or more; inactive = T/C below 125%.

Tested on: L1210 leukemia ip in BDF1 mice, survival T/C
Experiment: NCI In Vivo Anticancer Drug Screen. Data for tumor model L1210 Leukemia (intraperitoneal) in B6D2F1 (BDF1) mice
Conditions: endpoint: mean survival time, higher = longer survival
In short: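 In this screen, tumor-bearing mice given compound are compared to those given vehicle, and their survival values are reported as a treated-to-control quotient.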

[1] = dose: 100.0 mg/kg/injection, schedule: Q04DX003 (ip), vehicle: saline
[2] = dose: 200.0 mg/kg/injection, schedule: Q04DX003 (ip), vehicle: saline
[3] = dose: 400.0 mg/kg/injection, schedule: Q04DX003 (ip), vehicle: saline
[4] = dose: 100.0 mg/kg/injection, schedule: Q04DX003 (ip), vehicle: saline with Tween-80
[5] = dose: 200.0 mg/kg/injection, schedule: Q04DX003 (ip), vehicle: saline with Tween-80
[6] = dose: 400.0 mg/kg/injection, schedule: Q04DX003 (ip), vehicle: saline with Tween-80
[7] = dose: 50.0 mg/kg/injection, schedule: Q01DX001 (ip), vehicle: saline
[8] = dose: 100.0 mg/kg/injection, schedule: Q01DX001 (ip), vehicle: saline
[9] = dose: 200.0 mg/kg/injection, schedule: Q01DX001 (ip), vehicle: saline
[10] = dose: 100.0 mg/kg/injection, schedule: Q01DX009 (ip), vehicle: saline with Tween-80
[11] = dose: 200.0 mg/kg/injection, schedule: Q01DX009 (ip), vehicle: saline with Tween-80
[12] = dose: 400.0 mg/kg/injection, schedule: Q01DX009 (ip), vehicle: saline with Tween-80
[13] = dose: 100.0 mg/kg/injection, schedule: Q04DX002 (ip), vehicle: Klucel (hydroxypropylcellulose) (HPC)
[14] = dose: 200.0 mg/kg/injection, schedule: Q04DX002 (ip), vehicle: Klucel (hydroxypropylcellulose) (HPC)
[15] = dose: 400.0 mg/kg/injection, schedule: Q04DX002 (ip), vehicle: Klucel (hydroxypropylcellulose) (HPC)
[16] = dose: 75.0 mg/kg/injection, schedule: Q01DX001 (ip), vehicle: saline
[17] = dose: 100.0 mg/kg/injection, schedule: Q01DX009 (ip), vehicle: Klucel (hydroxypropylcellulose) (HPC)
[18] = dose: 100.0 mg/kg/injection, schedule: Q04DX003 (ip), vehicle: Klucel (hydroxypropylcellulose) (HPC)
[19] = dose: 200.0 mg/kg/injection, schedule: Q01DX009 (ip), vehicle: Klucel (hydroxypropylcellulose) (HPC)
[20] = dose: 100.0 mg/kg/injection, schedule: Q01DX001 (ip), vehicle: saline with Tween-80
[21] = dose: 200.0 mg/kg/injection, schedule: Q01DX001 (ip), vehicle: saline with Tween-80
[22] = dose: 400.0 mg/kg/injection, schedule: Q01DX001 (ip), vehicle: saline with Tween-80

Measured: T/C

CC1CN=C(c2cccc(NC(=O)NCCCCNC(=O)Nc3cccc(C4=NCC(C)N4)c3)c2)N1 (configuration not stated)
inactive: dose: 6.5 mg/kg/injection, schedule: Q01DX Z (ip), vehicle: carboxymethylcellulose (CMC) 94 % of control

C=CCc1ccc(OC(C)OCCOCCOCC)c(OC)c1 (configuration not stated)
inactive: dose: 100.0 mg/kg/injection, schedule: Q04DX002 (ip), vehicle: saline 92 % of control | dose: 200.0 mg/kg/injection, schedule: Q04DX002 (ip), vehicle: saline 96 % of control | dose: 400.0 mg/kg/injection, schedule: Q04DX002 (ip), vehicle: saline 101 % of control

O=C1OC2CC3CC2C1C3C(=O)N1CCOCC1 (configuration not stated)
inactive: [1] 100 % of control and 96 % of control | [2] 91 % of control and 98 % of control | [3] 100 % of control and 98 % of control

O/N=C1/C=C(c2ccccc2)C(O)(c2ccccc2)C1 (configuration not stated)
inactive: [4] 102 % of control | [5] 96 % of control | [6] 93 % of control

CC(=O)Nc1ncc(/C=C/C=C/c2ccc([N+](=O)[O-])cc2)c(NC(C)=O)n1
inactive: dose: 100.0 mg/kg/injection, schedule: Q01DX001 (ip), vehicle: Klucel (hydroxypropylcellulose) (HPC) 91 % of control | dose: 200.0 mg/kg/injection, schedule: Q01DX001 (ip), vehicle: Klucel (hydroxypropylcellulose) (HPC) 86 % of control | dose: 400.0 mg/kg/injection, schedule: Q01DX001 (ip), vehicle: Klucel (hydroxypropylcellulose) (HPC) 87 % of control

Nc1nc(NCCO)c(NC=O)c(=O)[nH]1
inactive: dose: 100.0 mg/kg/injection, schedule: Q01DX Z (ip), vehicle: methylcellulose (MC) 103 % of control | dose: 128.0 mg/kg/injection, schedule: Q01DX Z (ip), vehicle: methylcellulose (MC) 95 % of control | dose: 222.0 mg/kg/injection, schedule: Q01DX Z (ip), vehicle: methylcellulose (MC) 94 % of control | dose: 333.0 mg/kg/injection, schedule: Q01DX Z (ip), vehicle: methylcellulose (MC) 97 % of control

COc1cc2ccnc(/C=N\NC(N)=S)c2cc1OC
inactive: [7] 93 % of control | [8] 98 % of control | [9] 93 % of control

COC(=O)C1(C)CCCC2(C)C1CCC13OCC(CC21)C(=C(C)C)C3OC(C)=O (configuration not stated)
inactive: [10] 93 % of control | [11] 88 % of control | [12] 90 % of control

Cc1ccc2[nH]c(-c3ccccc3)c(-c3ccccc3)c2c1
inactive: [10] 95 % of control | [11] 103 % of control | [12] 95 % of control

CCOc1ccc([N+](=O)[O-])cc1
inactive: [13] 100 % of control | [14] 91 % of control | [15] 103 % of control

O=[N+]([O-])c1ccc(N/N=C2\CCCCCC2c2ccccc2)c([N+](=O)[O-])c1 (configuration not stated)
inactive: [13] 100 % of control | [14] 96 % of control | [15] 100 % of control

O=NN1CCCCCC1C(=O)O (configuration not stated)
inactive: [8] 108 % of control | [9] 102 % of control

Nc1ccc(P(=O)(O)c2ccc(N)cc2)cc1
inactive: dose: 75.0 mg/kg/injection, schedule: Q01DX001 (ip), vehicle: carboxymethylcellulose (CMC) 94 % of control | dose: 150.0 mg/kg/injection, schedule: Q01DX001 (ip), vehicle: carboxymethylcellulose (CMC) 97 % of control | dose: 300.0 mg/kg/injection, schedule: Q01DX001 (ip), vehicle: carboxymethylcellulose (CMC) 103 % of control

O=C1c2[nH]c3ccccc3c2CC2CC12 (configuration not stated)
inactive: [16] 96 % of control | dose: 150.0 mg/kg/injection, schedule: Q01DX001 (ip), vehicle: saline 104 % of control | dose: 300.0 mg/kg/injection, schedule: Q01DX001 (ip), vehicle: saline 101 % of control

Cc1c(NC(=O)CCl)c(=O)n(-c2ccccc2)n1C
inactive: [17] 98 % of control | [18] 100 % of control | [19] 94 % of control | dose: 200.0 mg/kg/injection, schedule: Q04DX003 (ip), vehicle: Klucel (hydroxypropylcellulose) (HPC) 96 % of control | dose: 400.0 mg/kg/injection, schedule: Q04DX003 (ip), vehicle: Klucel (hydroxypropylcellulose) (HPC) 95 % of control

NC(=S)NN=C1CCCC1
inactive: dose: 6.25 mg/kg/injection, schedule: Q04DX003 (ip), vehicle: saline 96 % of control | dose: 12.5 mg/kg/injection, schedule: Q04DX003 (ip), vehicle: saline 94 % of control | dose: 25.0 mg/kg/injection, schedule: Q04DX003 (ip), vehicle: saline 94 % of control

O=[N+]([O-])c1ccc(N=C=S)cc1
inactive: dose: 25.0 mg/kg/injection, schedule: Q04DX003 (ip), vehicle: Klucel (hydroxypropylcellulose) (HPC) 95 % of control | dose: 50.0 mg/kg/injection, schedule: Q04DX003 (ip), vehicle: Klucel (hydroxypropylcellulose) (HPC) 95 % of control | [18] 93 % of control

CCCCCCC(=O)/C=C/c1ccc(Cl)c(Cl)c1
inactive: dose: 100.0 mg/kg/injection, schedule: Q01DX009 (ip), vehicle: acetone 92 % of control | dose: 100.0 mg/kg/injection, schedule: Q04DX003 (ip), vehicle: acetone 101 % of control | dose: 200.0 mg/kg/injection, schedule: Q01DX009 (ip), vehicle: acetone 92 % of control | dose: 200.0 mg/kg/injection, schedule: Q04DX003 (ip), vehicle: acetone 93 % of control | dose: 400.0 mg/kg/injection, schedule: Q04DX003 (ip), vehicle: acetone 98 % of control

SCc1ccccn1
inactive: dose: 30.0 mg/kg/injection, schedule: Q01DX015 (ip), vehicle: saline 103 % of control | dose: 60.0 mg/kg/injection, schedule: Q01DX015 (ip), vehicle: saline 94 % of control | [8] 107 % of control | dose: 120.0 mg/kg/injection, schedule: Q01DX015 (ip), vehicle: saline 120 % of control | [9] 107 % of control | dose: 240.0 mg/kg/injection, schedule: Q01DX015 (ip), vehicle: saline 111 % of control | dose: 400.0 mg/kg/injection, schedule: Q01DX001 (ip), vehicle: saline 107 % of control | dose: 400.0 mg/kg/injection, schedule: Q01DX015 (ip), vehicle: saline 90 % of control

CSc1ccc(NC(=O)Nc2nccs2)cc1
inactive: dose: 200.0 mg/kg/injection, schedule: Q04DX003 (ip), vehicle: saline sonified 87 % of control | dose: 400.0 mg/kg/injection, schedule: Q04DX003 (ip), vehicle: saline sonified 92 % of control

COC(=O)CCC(NC(=O)C1CSC(C)(C)N1C=O)C(=O)OC (configuration not stated)
inactive: [1] 104 % of control | [2] 101 % of control | [3] 101 % of control

O=C(N/N=C\c1cc(=O)[nH]c(=O)[nH]1)c1ccncc1
inactive: [7] 90 % of control | [8] 95 % of control | [9] 95 % of control

CNC(COC(=O)c1ccc(N)cc1)C1CCCCC1 (configuration not stated)
inactive: [16] 97 % of control

CC(C)(C)C(=O)CC(=O)C(C)(C)C.CC(C)(C)C(=O)CC(=O)C(C)(C)C.CC(C)(C)C(=O)CC(=O)C(C)(C)C.[Gd]
inactive: [4] 101 % of control | [5] 101 % of control | [6] 92 % of control

CCN(C(=O)c1ccc([N+](=O)[O-])cc1)C(c1ccccc1)P(=O)(c1ccccc1)c1ccccc1 (configuration not stated)
inactive: dose: 100.0 mg/kg/injection, schedule: Q04DX002 (ip), vehicle: saline with Tween-80 89 % of control | [11] 95 % of control | dose: 400.0 mg/kg/injection, schedule: Q04DX002 (ip), vehicle: saline with Tween-80 88 % of control

O=c1c2ccccc2oc2ccccc12
inactive: [20] 102 % of control | [4] 96 % of control | [21] 102 % of control | [5] 97 % of control | [22] 102 % of control

Nc1cccc(OCCCOc2cccc(N)c2)c1
inactive: dose: 50.0 mg/kg/injection, schedule: Q01DX009 (ip), vehicle: Klucel (hydroxypropylcellulose) (HPC) 96 % of control | [17] 101 % of control | [19] 90 % of control

NC(=O)c1cc([N+](=O)[O-])c(N)c([N+](=O)[O-])c1
inactive: [20] 100 % of control | [21] 95 % of control | [22] 100 % of control

Nc1c(Cl)ncnc1NC1CCC(CO)C1 (configuration not stated)
inactive: dose: 100.0 mg/kg/injection, schedule: Q01DX001 (ip), vehicle: carboxymethylcellulose (CMC) 103 % of control | dose: 200.0 mg/kg/injection, schedule: Q01DX001 (ip), vehicle: carboxymethylcellulose (CMC) 106 % of control
